In patent US4435583A, “2-Halo-substituted monic acid A useful as antibacterial compounds” (Beecham Group p.l.c., priority 1981, dated 1984):
Values after ≈ are worked out from the molar mass of the structure shown.

Legend:
Format in all cases: cell-based
[1] = tested on: M. bovigenitalium ATCC 14173; assay: In vitro anti-mycoplasmal MIC; details: 144 h, Friis broth, 0.9% agarose, 6 days, 37° C., read-out: MIC
M. hyorhinis ATCC 23234 = assay: In vitro anti-mycoplasmal MIC; details: Mesomycoplasma hyorhinis, ATCC23234, 144 h, Friis broth, 0.9% agarose, 6 days, 37° C., read-out: MIC
[2] = tested on: M. hyosynoviae ATCC 25591; assay: In vitro anti-mycoplasmal MIC; details: 144 h, Friis broth, 0.9% agarose, 6 days, 37° C., read-out: MIC
M. suipneumoniae TAM 6N = assay: In vitro anti-mycoplasmal MIC; details: Friis broth, 0.9% agarose, 6 days, 37° C.
[3] = tested on: M. suipneumoniae ATCC 25095; assay: In vitro anti-mycoplasmal MIC; details: Friis broth, 0.9% agarose, 6 days, 37° C.
M. suipneumoniae MS16 = assay: In vitro anti-mycoplasmal MIC; details: Mesomycoplasma hyopneumoniae, 144 h, Friis broth, 0.9% agarose, 6 days, 37° C., read-out: MIC
M. suipneumoniae JF435 = assay: In vitro anti-mycoplasmal MIC; details: Friis broth, 0.9% agarose, 6 days, 37° C.
P. mirabilis 889 = assay: MIC against human bacteria; details: nutrient agar, 5% chocolated horse blood, 18 hours, 37° C.
Description: (§1) The values were determined by serial dilutions in nutrient agar with 5% chocolated horse blood after incubations for 18 hours at 37° C.

Staph. aureus Oxford [4] = assay: MIC against human bacteria; details: nutrient agar, 5% chocolated horse blood, 18 hours, 37° C.
Description: as §1

[5] = tested on: Corynebacterium xerosis 9755; assay: MIC against human bacteria; details: nutrient agar, 5% chocolated horse blood, 18 hours, 37° C.
Description: as §1

[6] = tested on: Haemophilus influenzae Wy21; assay: MIC against human bacteria; details: nutrient agar, 5% chocolated horse blood, 18 hours, 37° C., read-out: MIC
Description: as §1

[7] = tested on: Neisseria catarrhalis 1502; assay: MIC against human bacteria; details: nutrient agar, 5% chocolated horse blood, 18 hours, 37° C.
Description: as §1

E. coli ESS = assay: MIC against human bacteria; details: nutrient agar, 5% chocolated horse blood, 18 hours, 37° C.
Description: as §1

Past. multocida 1633 = assay: MIC against human bacteria; details: nutrient agar, 5% chocolated horse blood, 18 hours, 37° C.
Description: as §1

Strep. faecalis I = assay: MIC against human bacteria; details: nutrient agar, 5% chocolated horse blood, 18 hours, 37° C.
Description: as §1

Staph. aureus W2827 = assay: MIC against human bacteria; details: nutrient agar, 5% chocolated horse blood, 18 hours, 37° C.
Description: as §1

Staph. aureus Russell = assay: MIC against human bacteria; details: nutrient agar, 5% chocolated horse blood, 18 hours, 37° C.
Description: as §1

Strep. 2788-B = assay: MIC against human bacteria; details: nutrient agar, 5% chocolated horse blood, 18 hours, 37° C.
Description: as §1

E. coli NCTC 10418 [8] = assay: MIC against human bacteria; details: nutrient agar, 5% chocolated horse blood, 18 hours, 37° C.
Description: as §1

Strep. 641848-C = assay: MIC against human bacteria; details: nutrient agar, 5% chocolated horse blood, 18 hours, 37° C.
Description: as §1

[9] = tested on: Haemophilus influenzae Q1; assay: MIC against human bacteria; details: nutrient agar, 5% chocolated horse blood, 18 hours, 37° C., read-out: MIC
Description: as §1

K. aerogenes A = assay: MIC against human bacteria; details: nutrient agar, 5% chocolated horse blood, 18 hours, 37° C.
Description: as §1

Bacillus subtilis 6633 = assay: MIC against human bacteria; details: nutrient agar, 5% chocolated horse blood, 18 hours, 37° C.
Description: as §1

[10] = tested on: Strep. pyrogenes R80/421-A; assay: MIC against human bacteria; details: nutrient agar, 5% chocolated horse blood, 18 hours, 37° C.
Description: as §1

Sarcina lutea 8340 = assay: MIC against human bacteria; details: nutrient agar, 5% chocolated horse blood, 18 hours, 37° C.
Description: as §1

Strep. pneumoniae CN33 = assay: MIC against human bacteria; details: nutrient agar, 5% chocolated horse blood, 18 hours, 37° C.
Description: as §1

[11] = tested on: Ps. aeruginosa NCTC 10662; assay: MIC against human bacteria; details: nutrient agar, 5% chocolated horse blood, 18 hours, 37° C.
Description: as §1

M. hyorhinis ATCC 25021 = assay: In vitro anti-mycoplasmal MIC; details: Mesomycoplasma hyorhinis, ATCC25021, 144 h, Friis broth, 0.9% agarose, 6 days, 37° C., read-out: MIC
M. suipneumoniae LABER = assay: In vitro anti-mycoplasmal MIC; details: Mesomycoplasma hyopneumoniae, 144 h, Friis broth, 0.9% agarose, 6 days, 37° C., read-out: MIC
M. suipneumoniae Str.11 = assay: In vitro anti-mycoplasmal MIC; details: Friis broth, 0.9% agarose, 6 days, 37° C.
M. gallisepticum S6 = assay: In vitro anti-mycoplasmal MIC; details: Friis broth, 0.9% agarose, 6 days, 37° C.
M. bovis NCTC 10131 = assay: microbe, parasite or virus in culture; details: M. bovis NCTC 10131; Friis broth, 0.9% agarose; 6 days, 37° C.
M. suipneumoniae UCD 1 = assay: In vitro anti-mycoplasmal MIC; details: Friis broth, 0.9% agarose, 6 days, 37° C.
Staph. aureus 152 = assay: MIC against veterinary bacteria; details: Diagnostic Sensitivity Test Agar, 18 hours, 37° C.
Description: (§2) The values were determined using a two fold serial dilutions in Diagnostic Sensitivity Test Agar with an inoculum of 10^4 organisms and incubation for 18 hours at 37° C.

Staph. aureus Oxford [12] = assay: MIC against veterinary bacteria; details: Diagnostic Sensitivity Test Agar, 18 hours, 37° C.
Description: as §2

Strep. uberis SPU1 = assay: MIC against veterinary bacteria; details: Strep. uberis SPU1; Diagnostic Sensitivity Test Agar; 18 hours, 37° C.
Description: as §2

[13] = tested on: Erysipelothrix rhusiopathiae NCTC 8163; assay: MIC against veterinary bacteria; details: Diagnostic Sensitivity Test Agar, 18 hours, 37° C.
Description: as §2

Past. haemolytica PA5 = assay: MIC against veterinary bacteria; details: Diagnostic Sensitivity Test Agar, 18 hours, 37° C.
Description: as §2

Staph. aureus B4 = assay: MIC against veterinary bacteria; details: Diagnostic Sensitivity Test Agar, 18 hours, 37° C.
Description: as §2

[14] = tested on: Strep. suis (group D) SPS11; assay: MIC against veterinary bacteria; details: Diagnostic Sensitivity Test Agar, 18 hours, 37° C.
Description: as §2

Strep. agalactiae SPA1 = assay: MIC against veterinary bacteria; details: Diagnostic Sensitivity Test Agar, 18 hours, 37° C.
Description: as §2

[15] = tested on: Corynebacterium pyogenes CY1; assay: MIC against veterinary bacteria; details: Diagnostic Sensitivity Test Agar, 18 hours, 37° C.
Description: as §2

Bord. bronchiseptica B09 = assay: MIC against veterinary bacteria; details: Diagnostic Sensitivity Test Agar, 18 hours, 37° C.
Description: as §2

Past. multocida PA1 = assay: MIC against veterinary bacteria; details: Diagnostic Sensitivity Test Agar, 18 hours, 37° C.
Description: as §2

Strep. dysgalactiae SPD1 = assay: MIC against veterinary bacteria; details: Diagnostic Sensitivity Test Agar, 18 hours, 37° C.
Description: as §2

Bord. bronchiseptica B08 = assay: MIC against veterinary bacteria; details: Diagnostic Sensitivity Test Agar, 18 hours, 37° C.
Description: as §2

E. coli NCTC 10418 [16] = assay: MIC against veterinary bacteria; details: Diagnostic Sensitivity Test Agar, 18 hours, 37° C.
Description: as §2

E. coli E1 = assay: MIC against veterinary bacteria; details: Diagnostic Sensitivity Test Agar, 18 hours, 37° C.
Description: as §2

S. dublin S7 = assay: MIC against veterinary bacteria; details: Diagnostic Sensitivity Test Agar, 18 hours, 37° C.
Description: as §2

Past. multocida PA2 = assay: MIC against veterinary bacteria; details: Diagnostic Sensitivity Test Agar, 18 hours, 37° C.
Description: as §2

S. typhimurium S18 = assay: MIC against veterinary bacteria; details: Diagnostic Sensitivity Test Agar, 18 hours, 37° C.
Description: as §2

[17] = tested on: M. suipneumoniae J2206/183b; assay: In vitro anti-mycoplasmal MIC; details: Friis broth, 0.9% agarose, 6 days, 37° C.
M. pneumoniae ATCC 15492 = assay: In vitro anti-mycoplasmal MIC; details: Friis broth, 0.9% agarose, 6 days, 37° C.
M. dispar NCTC 10125 = assay: In vitro anti-mycoplasmal MIC; details: 144 h, Friis broth, 0.9% agarose, 6 days, 37° C., read-out: MIC
[18] = tested on: M. suipneumoniae NCTC 10110; assay: In vitro anti-mycoplasmal MIC; details: Friis broth, 0.9% agarose, 6 days, 37° C.
M. suipneumoniae NB12 = assay: In vitro anti-mycoplasmal MIC; details: Friis broth, 0.9% agarose, 6 days, 37° C.
M. suipneumoniae HK(2) = assay: In vitro anti-mycoplasmal MIC; details: Friis broth, 0.9% agarose, 6 days, 37° C.
[19] = tested on: M. suipneumoniae PW/C/210; assay: In vitro anti-mycoplasmal MIC; details: Mesomycoplasma hyopneumoniae, 144 h, Friis broth, 0.9% agarose, 6 days, 37° C., read-out: MIC

`CCOC(=O)C(F)=C(C)CC1OCC(CC2OC2C(C)C(C)O)C(O)C1O` [Example 2, Ethyl-4-[5S-(2S,3S-epoxy-5S-hydroxy-4S-methylhexyl)-3R, 4R-dihydroxytetrahydropyran-2S-yl]-2-fluoro-3-methylbut-2(E)-enoate] gave an MIC [1] of 0.5 µg/mL (≈ 1.28 µM), an MIC (M. hyorhinis ATCC 23234) of 5 µg/mL (≈ 12.8 µM) and an MIC [2] of 10 µg/mL (≈ 25.6 µM). For the same molecule, the MIC (M. suipneumoniae TAM 6N) was 10.0 µg/mL (≈ 25.6 µM), the MIC [3] was 10.0 µg/mL (≈ 25.6 µM) and the MIC (M. suipneumoniae MS16) was 5 µg/mL (≈ 12.8 µM). For the same molecule, the MIC (M. suipneumoniae JF435) was 10.0 µg/mL (≈ 25.6 µM), the MIC (P. mirabilis 889) was > 100.0 µg/mL and the MIC (Staph. aureus Oxford [4]) was 25.0 µg/mL (≈ 64 µM). The MIC [5] was > 100.0 µg/mL, the MIC [6] was 10 µg/mL (≈ 25.6 µM) and the MIC [7] was 10.0 µg/mL (≈ 25.6 µM). For the same molecule, the MIC (E. coli ESS) was 50.0 µg/mL (≈ 128 µM), the MIC (Past. multocida 1633) was 50.0 µg/mL (≈ 128 µM) and the MIC (Strep. faecalis I) was > 100.0 µg/mL. The MIC (Staph. aureus W2827) was 50.0 µg/mL (≈ 128 µM), the MIC (Staph. aureus Russell) was 50.0 µg/mL (≈ 128 µM) and the MIC (Strep. 2788-B) was > 100.0 µg/mL. The MIC (E. coli NCTC 10418 [8]) was > 100.0 µg/mL, the MIC (Strep. 641848-C) was 100.0 µg/mL (≈ 256 µM) and the MIC [9] was 10 µg/mL (≈ 25.6 µM). For the same molecule, the MIC (K. aerogenes A) was > 100.0 µg/mL, the MIC (Bacillus subtilis 6633) was 100.0 µg/mL (≈ 256 µM) and the MIC [10] was 100.0 µg/mL (≈ 256 µM). For the same molecule, the MIC (Sarcina lutea 8340) was > 100.0 µg/mL, the MIC (Strep. pneumoniae CN33) was 100.0 µg/mL (≈ 256 µM) and the MIC [11] was > 100.0 µg/mL. The MIC (M. hyorhinis ATCC 25021) was 5 µg/mL (≈ 12.8 µM), the MIC (M. suipneumoniae LABER) was 5 µg/mL (≈ 12.8 µM) and the MIC (M. suipneumoniae Str.11) was 5.0 µg/mL (≈ 12.8 µM). The MIC (M. gallisepticum S6) was 10.0 µg/mL (≈ 25.6 µM), the MIC (M. bovis NCTC 10131) was 0.25 µg/mL (≈ 0.64 µM) and the MIC (M. suipneumoniae UCD 1) was 10.0 µg/mL (≈ 25.6 µM). It also gave an MIC (Staph. aureus 152) of 40.0 µg/mL (≈ 102 µM), an MIC (Staph. aureus Oxford [12]) of 40.0 µg/mL (≈ 102 µM) and an MIC (Strep. uberis SPU1) of 20.0 µg/mL (≈ 51.2 µM). The MIC [13] was 80.0 µg/mL (≈ 205 µM), the MIC (Past. haemolytica PA5) was 80.0 µg/mL (≈ 205 µM) and the MIC (Staph. aureus B4) was 40.0 µg/mL (≈ 102 µM). For the same molecule, the MIC [14] was 80.0 µg/mL (≈ 205 µM), the MIC (Strep. agalactiae SPA1) was 80.0 µg/mL (≈ 205 µM) and the MIC [15] was 80.0 µg/mL (≈ 205 µM). The MIC (Bord. bronchiseptica B09) was > 80.0 µg/mL, the MIC (Past. multocida PA1) was 40.0 µg/mL (≈ 102 µM) and the MIC (Strep. dysgalactiae SPD1) was 40.0 µg/mL (≈ 102 µM). For the same molecule, the MIC (Bord. bronchiseptica B08) was > 80.0 µg/mL, the MIC (E. coli NCTC 10418 [16]) was > 80.0 µg/mL and the MIC (E. coli E1) was > 80.0 µg/mL. The MIC (S. dublin S7) was > 80.0 µg/mL, the MIC (Past. multocida PA2) was 20.0 µg/mL (≈ 51.2 µM) and the MIC (S. typhimurium S18) was > 80.0 µg/mL. The MIC [17] was 10.0 µg/mL (≈ 25.6 µM), the MIC (M. pneumoniae ATCC 15492) was 10.0 µg/mL (≈ 25.6 µM) and the MIC (M. dispar NCTC 10125) was 2.5 µg/mL (≈ 6.4 µM). It also gave an MIC [18] of 10.0 µg/mL (≈ 25.6 µM), an MIC (M. suipneumoniae NB12) of 10.0 µg/mL (≈ 25.6 µM) and an MIC (M. suipneumoniae HK(2)) of 10.0 µg/mL (≈ 25.6 µM). For the same molecule, the MIC [19] was 5 µg/mL (≈ 12.8 µM).
